According to the NIST ThermoML archive (doi:10.1016/j.tca.2013.03.010):

Key:
[1] = xn = mol fraction of the nth substance listed; details: 101 kPa, Liquid; for viscosity: Capillary tube (Ostwald / Ubbelohde) method; for mass density: Vibrating tube method
[2] = 101 kPa, Liquid; for viscosity: Capillary tube (Ostwald / Ubbelohde) method; for mass density: Vibrating tube method

OCCO [1,2-ethanediol] + OCCCO
[1], x1 = 1
Details | mass density [kg/m3] | viscosity [mPa·s]
298.15 K | – | 16.87
303.15 K | 1106 | 13.59
308.15 K | – | 11.34

OCCO [1,2-ethanediol] + CC(O)CO
[1], x1 = 1
Details | mass density [kg/m3] | viscosity [mPa·s]
298.15 K | – | 16.87
303.15 K | 1106 | 13.59
308.15 K | – | 11.34

OCCO [1,2-ethanediol]
[2]
Details | mass density [kg/m3] | viscosity [mPa·s]
298.15 K | – | 16.87
303.15 K | 1106 | 13.59
308.15 K | – | 11.34

CC(O)CO (stereo not given) [1,2-propanediol] + OCCO
[1]
Details | mass density, 298.15 K [kg/m3] | mass density, 303.15 K [kg/m3] | mass density, 308.15 K [kg/m3] | viscosity, 298.15 K [mPa·s] | viscosity, 303.15 K [mPa·s] | viscosity, 308.15 K [mPa·s]
x2 = 0 | 1032.7 | 1028.8 | 1025.2 | 44.78 | 33.75 | 27
x2 = 0.1208 | 1041 | 1036.9 | 1033.3 | 42.41 | 32.1 | 25.65
x2 = 0.2353 | 1048.6 | 1044.6 | 1041 | 40.03 | 30.14 | 24.13
x2 = 0.3454 | 1056.1 | 1052.1 | 1048.5 | 37.28 | 28.08 | 22.51
x2 = 0.4345 | 1062.3 | 1058.4 | 1054.7 | 34.74 | 26.24 | 21.05
x2 = 0.5508 | 1070.8 | 1066.9 | 1063.4 | 31.35 | 23.8 | 19.11
x2 = 0.6303 | 1077 | 1073.1 | 1069.5 | 28.91 | 22.06 | 17.78
x2 = 0.7473 | 1086.6 | 1082.7 | 1079.2 | 25.33 | 19.52 | 15.82
x2 = 0.8302 | 1093.7 | 1089.8 | 1086.4 | 22.72 | 17.62 | 14.39
x2 = 0.9065 | 1100.6 | 1096.8 | 1093.4 | 20.16 | 15.86 | 13.07

CC(O)CO (stereo not given) [1,2-propanediol]
[2]
Details | mass density [kg/m3] | viscosity [mPa·s]
298.15 K | 1032.7 | 44.78
303.15 K | 1028.8 | 33.75
308.15 K | 1025.2 | 27

OCCCO [propan-1,3-diol]
[2]
Details | mass density [kg/m3] | viscosity [mPa·s]
298.15 K | 1049.6 | 41.36
303.15 K | 1046.2 | 32.78
308.15 K | 1043.1 | 26.34

OCCCO [propan-1,3-diol] + CC(O)CO
[1]
Details | mass density, 298.15 K [kg/m3] | mass density, 303.15 K [kg/m3] | mass density, 308.15 K [kg/m3] | viscosity, 298.15 K [mPa·s] | viscosity, 303.15 K [mPa·s] | viscosity, 308.15 K [mPa·s]
x2 = 0 | 1049.6 | 1046.2 | 1043.1 | 41.36 | 32.78 | 26.34
x2 = 0.1002 | 1049.1 | 1046 | 1043 | 41.77 | 32.93 | 26.45
x2 = 0.2105 | 1048.3 | 1045.6 | 1042.8 | 42.23 | 33.12 | 26.56
x2 = 0.2994 | 1047.8 | 1045.1 | 1042.2 | 42.59 | 33.26 | 26.66
x2 = 0.4088 | 1046.9 | 1044.1 | 1041 | 43.02 | 33.43 | 26.75
x2 = 0.5002 | 1045.9 | 1043 | 1039.9 | 43.38 | 33.56 | 26.84
x2 = 0.5937 | 1044.7 | 1041.7 | 1038.5 | 43.73 | 33.66 | 26.91
x2 = 0.7125 | 1042.6 | – | – | 44.08 | 33.73 | 26.94
x2 = 0.7126 | – | 1039.3 | 1036 | – | – | –
x2 = 0.7996 | 1040.2 | 1036.7 | 1033.5 | 44.31 | 33.75 | 26.96
x2 = 0.9217 | 1036.5 | 1033 | 1029.7 | 44.62 | 33.76 | 26.99

OCCCO [propan-1,3-diol] + OCCO
[1]
Details | mass density, 298.15 K [kg/m3] | mass density, 303.15 K [kg/m3] | mass density, 308.15 K [kg/m3] | viscosity, 298.15 K [mPa·s] | viscosity, 303.15 K [mPa·s] | viscosity, 308.15 K [mPa·s]
x2 = 0 | 1049.6 | 1046.2 | 1043.1 | 41.36 | 32.78 | 26.34
x2 = 0.1107 | 1055.3 | 1051.7 | 1048.5 | 39.55 | 31.2 | 24.94
x2 = 0.2024 | 1060.1 | 1056.5 | 1053.1 | 37.7 | 29.75 | 23.7
x2 = 0.3597 | 1069.3 | 1065.7 | 1061.9 | 34.33 | 26.96 | 21.43
x2 = 0.4617 | 1075.7 | 1072 | 1068.1 | 31.96 | 25.06 | 19.91
x2 = 0.551 | 1081.4 | 1077.6 | 1073.6 | 29.75 | 23.32 | 18.56
x2 = 0.6258 | 1086.2 | 1082.3 | 1078.3 | 27.76 | 21.77 | 17.39
x2 = 0.7354 | 1093.1 | 1089.2 | 1085.2 | 24.77 | 19.45 | 15.66
x2 = 0.8285 | 1099.1 | 1095.2 | 1091.1 | 22.09 | 17.39 | 14.15
x2 = 0.9105 | 1104.5 | 1100.7 | 1096.5 | 19.62 | 15.64 | 12.82

CC(O)CO (stereo not given) [1,2-propanediol] + OCCCO
[1], x1 = 1
Details | mass density [kg/m3] | viscosity [mPa·s]
298.15 K | 1032.7 | 44.78
303.15 K | 1028.8 | 33.75
308.15 K | 1025.2 | 27
